Values of other authors, collected in patent publication US8071785B2, “Synthesis and evaluation of 18F-labelled-alkyl-1-[(1R)-1-phenylethyl]-1H-imidazole-5-carboxylate as a tracer for the quantification of β-11-hydroxylase enzyme in the adrenal glands” (priority 2006, dated 2011).

Key:
[1] = test system: steroid 110-hydroxylation
[2] = test system: lesions of adrenocortical origin; details: clinical findings
[3] = human adrenocortical tissue slices

CCOC(=O)c1cncn1[C@H](C)c1ccccc1 [etomidate]
conversion of 11-deoxycorticosterone (DOC) to corticosterone and aldosterone [1, 3]: block the conversion | conversion of 11-deoxycortisol to cortisol [1, 3]: block the conversion

CC(c1ccccc1)n1cncc1C(=O)O[11CH3] (centres unmarked) [[O-methyl-^11C]metomidate]
uptake in lesions of adrenocortical origin, including adenomas [2]: high uptake | uptake in lesions of non-adrenocortical origin [2]: very low uptake

COC(=O)c1cncn1[C@H](C)c1ccccc1 [metomidate, Methyl 1-[(1R)-1-phenylethyl]-1H-imidazole-5-carboxylate]
inhibition of steroid 110-hydroxylation ([1]; relative to etomidate): equally potent inhibitor
